Values joined by “and” are separate entries in the source; they are usually repeats but may differ in a detail not shown here. Identical values can stand only once. Like-named read-outs stand apart in the source and are kept apart here.
Columns and labels:
[1] = tested on: RNA polymerase II Serine 5 phosphorylation (CDK7) in A549 cells
[2] = tested on: RNA polymerase II Serine 5 phosphorylation in A549 cells overexpressing CDK7 mutant (C312S); experiment: Imaging-based cellular RNA PolII Ser5 phosphorylation assay in A549 cells overexpressing CDK7-mutant (C312S); assay type: cell-based, human; conditions: for IC50: Homo sapiens, A549, A549 cells overexpressing CDK7 mutant (C312S), read-out: CDK7_ A549 mutant hCDK7(pIC50) (converted); for CDK7_ A549 mutant hCDK7(pIC50): A549 cells overexpressing CDK7 mutant (C312S)
Procedure: Data were calculated and analyzed in Phaedra.
From this an IC50 value can be obtained.
In parallel this assay was performed in A549 cells overexpressing CDK7-mutant (C312S) to evaluate the effect of the covalent bond on potency and to screen for potential off-target effects. Mutation of Cysteine to Serine (C312S), a less nucleophilic amino acid, prevents CDK7 inhibitors from covalently binding to CDK7 and from inhibiting CDK7 activity in an irreversible manner. A stably transduced A549 cell pool was generated that overexpresses CDK7 mutant (C312S), but also expresses endogenous CDK7-WT. Covalent binders targeting the cysteine at position 312 will show a shift in potency in A549 cells overexpressing mutant C312S CDK7.

[3] = molecular target: CDK7/cyclinH/MAT1 trimeric complex (Homo sapiens (Human), UniProt P50613); experiment: In vitro CDK7 assay, potency of irreversible covalent inhibitors (kinact/KI); conditions: for Ki: CDK7 (20 nM enz.) (KI, μM); for CDK7 (20 nM enz.) (kinact, s^−1) / CDK7 (20 nM enz.) (kinact/ KI, M^−1*s^−1) / Ki: 20 nM enz.; for kinact: read-out: CDK7 (20 nM enz.) (kinact, s^−1), 20 nM enz.
Chain of CDK7/cyclinH/MAT1 trimeric complex (P50613 whole entry): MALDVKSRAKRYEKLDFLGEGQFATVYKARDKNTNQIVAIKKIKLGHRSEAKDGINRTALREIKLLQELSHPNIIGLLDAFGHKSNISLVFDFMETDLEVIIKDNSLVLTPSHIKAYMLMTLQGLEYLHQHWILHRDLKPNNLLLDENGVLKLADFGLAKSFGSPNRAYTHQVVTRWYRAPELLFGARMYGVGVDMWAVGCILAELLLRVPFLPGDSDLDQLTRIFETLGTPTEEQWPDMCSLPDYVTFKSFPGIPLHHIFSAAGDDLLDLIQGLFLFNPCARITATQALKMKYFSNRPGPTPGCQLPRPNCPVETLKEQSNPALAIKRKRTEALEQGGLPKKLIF
Chain of CDK7/cyclinH/MAT1 trimeric complex (P51946 whole entry partner): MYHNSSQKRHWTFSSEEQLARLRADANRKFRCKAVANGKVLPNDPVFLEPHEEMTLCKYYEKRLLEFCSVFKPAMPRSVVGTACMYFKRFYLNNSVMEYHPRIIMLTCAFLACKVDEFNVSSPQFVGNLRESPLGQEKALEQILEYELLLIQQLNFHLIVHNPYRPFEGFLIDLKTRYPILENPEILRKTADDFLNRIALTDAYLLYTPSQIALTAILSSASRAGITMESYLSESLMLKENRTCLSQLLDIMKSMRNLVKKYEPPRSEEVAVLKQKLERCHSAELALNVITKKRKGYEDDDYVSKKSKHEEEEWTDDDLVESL
Chain of CDK7/cyclinH/MAT1 trimeric complex (P51948 whole entry partner): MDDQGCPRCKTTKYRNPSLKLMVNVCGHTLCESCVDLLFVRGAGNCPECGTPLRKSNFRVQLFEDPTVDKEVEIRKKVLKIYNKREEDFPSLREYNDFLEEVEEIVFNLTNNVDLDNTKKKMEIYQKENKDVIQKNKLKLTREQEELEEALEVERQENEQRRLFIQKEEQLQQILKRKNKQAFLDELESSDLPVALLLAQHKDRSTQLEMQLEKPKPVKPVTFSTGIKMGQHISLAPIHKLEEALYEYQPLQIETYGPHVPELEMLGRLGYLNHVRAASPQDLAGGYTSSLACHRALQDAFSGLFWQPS

Compound | IC50 [1] [µM] | IC50 [2] [µM] | further results
CC#CC(=O)N1CCC(N2CCC(c3cc(C)c4c(c3)Nc3ncnc(N5CCS(=O)(=O)CC5)c3CO4)CC2)C1 (stereo not shown) [compound 152] | 0.0646 | ~8.32 | –
CC#CC(=O)N1CCOC([C@H]2C[C@H](c3cc(C)c4c(c3)Nc3ncnc(N5CCS(=O)(=O)CC5)c3[C@@H](C)O4)C2)C1 (single isomer, unassigned) [compound 186] | 0.269 | – | CDK7_ A549 mutant hCDK7(pIC50) [2]: <5
Cc1cc(C2CCN(C3CN(C(=O)C#CCCN(C)C)C3)CC2)cc2c1O[C@H](C)c1c(ncnc1N1CCS(=O)(=O)CC1)N2 [compound 178] | < 0.00977 | 5.75 | –
CC#CC(=O)N1CCN([C@H]2CC[C@@H](c3cc(C)c4c(c3)Nc3ncnc(N5CCS(=O)(=O)CC5)c3[C@@H](C)O4)CC2)CC1 [compound 162] | 0.209 | > 10 | –
CC#CC(=O)N1CC[C@H](N2CC(c3cc(C)c4c(c3)Nc3ncnc(N5CCS(=O)(=O)CC5)c3CO4)C2)C1 [compound 126] | 0.513 | > 10 | –
CC#CC(=O)N1CC[C@@H](N2CC(c3cc(C)c4c(c3)Nc3ncnc(N5CCS(=O)(=O)CC5)c3CO4)C2)C1 [compound 127] | 0.513 | > 10 | –
Cc1cc(C2CCN(C3CN(C(=O)C#CCCN4CCOCC4)C3)CC2)cc2c1O[C@H](C)c1c(ncnc1N1CCS(=O)(=O)CC1)N2 [compound 175] | ~0.0263 | ~10 | –
CC#CC(=O)N1CC[C@](C)(N2CCC(c3cc(C)c4c(c3)Nc3ncnc(N5CCS(=O)(=O)CC5)c3[C@@H](C)O4)CC2)C1 (single isomer, unassigned) [compound 146] | < 0.00245 | 4.37 | –
CC#CC(=O)N1CC(N2CC(c3cc(C)c4c(c3)Nc3ncnc(N5CCS(=O)(=O)CC5)c3CO4)C2)C1 [compound 132] | 0.813 | > 10 | –
CC#CC(=O)N1CC(N2CC(c3cc(C)c4c(c3)Nc3ncnc(N5CCS(=O)(=O)CC5)c3[C@@H](C)O4)C2)C(C)(C)C1 (mixture of isomers) [compound 184] | 0.186 | > 10 | –
CC#CC(=O)N1CC[C@@H](N2CC(c3cc(C)c4c(c3)Nc3ncnc(N5CCS(=O)(=O)CC5)c3[C@@H](C)O4)C2)C1 [compound 130] | – | > 10 | –
Cc1cc(C2CN([C@@H]3CCN(C(=O)C#CCN(C)C)C3)C2)cc2c1O[C@H](C)c1c(ncnc1N1CCS(=O)(=O)CC1)N2 (single isomer, unassigned) [compound 171] | < 0.00977 | 8.51 | –
C=CC(=O)N1CC[C@H](N2CC(c3cc(C)c4c(c3)Nc3ncnc(N5CCS(=O)(=O)CC5)c3[C@@H](C)O4)C2)C1 (single isomer, unassigned) [compound 117] | – | > 10 | CDK7 (20 nM enz.) (kinact, s^−1) [3]: 8.4e-05 s⁻¹ and 4.63e-05 s⁻¹; CDK7 (20 nM enz.) (kinact/ KI, M^−1*s^−1) [3]: 1546.72 M⁻¹ s⁻¹ and 2895.79 M⁻¹ s⁻¹ and 2153.89 M⁻¹ s⁻¹; Ki [3]: 0.034 µM and 0.029 µM and 0.0215 µM; kinact [3]: 5.26e-05 s⁻¹; kinact/KI ([3]; read-out: CDK7 (20 nM enz.) (kobs/[I], M^−1*s^−1), 20 nM enz.): 800 M⁻¹ s⁻¹; CDK7_ A549 mutant hCDK7(pIC50) [2]: <5
Cc1cc(C2CCN(C3CN(C(=O)C#CCN(C)C)C3)CC2)cc2c1O[C@H](C)c1c(ncnc1N1CCS(=O)(=O)CC1)N2 [compound 169] | < 0.00245 | 4.17 | –
CC#CC(=O)N1CC[C@H](N2CCC(c3cc(C)c4c(c3)Nc3ncnc(N5CCS(=O)(=O)CC5)c3CO4)CC2)C1 (single isomer, unassigned) [compound 134] | 0.0832 | > 10 | –
CC#CC(=O)N1CCC(N2CCC(c3cc(C)c4c(c3)Nc3ncnc(N5CCS(=O)(=O)CC5)c3[C@@H](C)O4)CC2)CC1 [compound 156] | < 0.00245 | 1.95 | –
C=CC(=O)N1CC[C@@H](N2CC(c3cc4c(c(C5CC5)c3)O[C@@H](C)c3c(ncnc3N3CCS(=O)(=O)CC3)N4)C2)C1 (single isomer, unassigned) [compound 98] | 0.347 | > 10 | –
C=CC(=O)N1CC[C@H](N2CC(c3cc4c(c(C5CC5)c3)O[C@@H](C)c3c(ncnc3N3CCS(=O)(=O)CC3)N4)C2)C1 (single isomer, unassigned) [compound 99] | ~0.794 | > 10 | –
CC#CC(=O)N1CC(N2CCC(c3cc(C)c4c(c3)Nc3ncnc(N5CCS(=O)(=O)CC5)c3[C@@H](C)O4)CC2)C1 [compound 158] | 0.0741 | – | CDK7_ A549 mutant hCDK7(pIC50) [2]: ~5.22

Compound | IC50 [1] [µM] | IC50 [2] [µM] | further results
CC#CC(=O)N1CC[C@@H](N2CC(c3cc(C)c4c(c3)Nc3ncnc(N5CCS(=O)(=O)CC5)c3[C@@H](C)O4)C2)C1 [compound 141] | 0.162 | – | CDK7_ A549 mutant hCDK7(pIC50) [2]: <5
CCC#CC(=O)N1CC[C@@H](N2CC(c3cc(C)c4c(c3)Nc3ncnc(N5CCS(=O)(=O)CC5)c3[C@@H](C)O4)C2)C1 (single isomer, unassigned) [compound 167] | 0.055 | > 10 | –
C=CC(=O)N1CCC(N2CC(c3cc(C)c4c(c3)Nc3ncnc(N5CCS(=O)(=O)CC5)c3CO4)C2)C1 (stereo not shown) [compound 112] | 0.204 | > 10 | –
[2H]C([2H])([2H])C#CC(=O)N1CC(C)(N2CCC(c3cc(C)c4c(c3)Nc3ncnc(N5CCS(=O)(=O)CC5)c3[C@@H](C)O4)CC2)C1 [compound 179] | ~0.0562 | > 10 | –
CC#CC(=O)N1CCC([C@H]2CC[C@H](c3cc(C)c4c(c3)Nc3ncnc(N5CCS(=O)(=O)CC5)c3[C@@H](C)O4)CC2)CC1 [compound 172] | 0.355 | > 10 | –
C=CC(=O)N1CC(N2CCC(c3cc(C)c4c(c3)Nc3ncnc(N5CCOC6(COC6)C5)c3CO4)CC2)C1 [compound 68] | 0.0871 | > 10 | –
CCC#CC(=O)N1CC(N2CCC(c3cc(C)c4c(c3)Nc3ncnc(N5CCS(=O)(=O)CC5)c3[C@@H](C)O4)CC2)C1 [compound 163] | ~0.0316 | > 10 | –
CC#CC(=O)N1CCOC([C@H]2C[C@H](c3cc(C)c4c(c3)Nc3ncnc(N5CCS(=O)(=O)CC5)c3[C@@H](C)O4)C2)C1 (single isomer, unassigned) [compound 185] | ~0.38 | > 10 | –
[2H]C([2H])([2H])C#CC(=O)N1CC[C@H](N2CC(c3cc(C)c4c(c3)Nc3ncnc(N5CCS(=O)(=O)CC5)c3[C@@H](C)O4)C2)C1 (single isomer, unassigned) [compound 166] | 0.141 | > 10 | –
Cc1cc(C2CN([C@H]3CCN(C(=O)C#CCN(C)C)C3)C2)cc2c1O[C@H](C)c1c(ncnc1N1CCS(=O)(=O)CC1)N2 (single isomer, unassigned) [compound 170] | < 0.00977 | 7.24 | –
CC#CC(=O)N1CCOC([C@H]2C[C@@H](c3cc(C)c4c(c3)Nc3ncnc(N5CCS(=O)(=O)CC5)c3[C@@H](C)O4)C2)C1 (single isomer, unassigned) [compound 188] | 0.389 | – | CDK7_ A549 mutant hCDK7(pIC50) [2]: <5
CC#CC(=O)N1CC[C@@H](N2CCC(c3cc(C)c4c(c3)Nc3ncnc(N5CCS(=O)(=O)CC5)c3CO4)CC2)C1 (single isomer, unassigned) [compound 135] | ~0.0501 | > 10 | –
CC#CC(=O)N1CC(OC2CCN(c3cc(C)c4c(c3)Nc3ncnc(N5CCS(=O)(=O)CC5)c3[C@@H](C)O4)CC2)C1 [compound 143] | 0.912 | > 10 | –
CC#CC(=O)N1CC[C@H](N2CC(c3cc(C)c4c(c3)Nc3ncnc(N5CCS(=O)(=O)CC5)c3[C@H](C)O4)C2)C1 (single isomer, unassigned) [compound 129] | – | > 10 | CDK7_ A549 mutant hCDK7(pIC50) [2]: <5
CC#CC(=O)N1CC[C@@H](N2CC(c3cc(C)c4c(c3)Nc3ncnc(N5CCS(=O)(=O)CC5)c3[C@H](C)O4)C2)C1 (single isomer, unassigned) [compound 131] | – | > 10 | CDK7_ A549 mutant hCDK7(pIC50) [2]: <5
C=CC(=O)N1CC[C@H](N2CCC(c3cc(C)c4c(c3)Nc3ncnc(N5CCS(=O)(=O)CC5)c3CO4)CC2)C1 (single isomer, unassigned) [compound 115] | – | > 10 | CDK7 (20 nM enz.) (kinact, s^−1) [3]: 5.98e-05 s⁻¹; CDK7 (20 nM enz.) (kinact/ KI, M^−1*s^−1) [3]: 1377.97 M⁻¹ s⁻¹; Ki [3]: 0.0595 µM and 0.0434 µM; kinact [3]: 7.64e-05 s⁻¹; kinact/KI ([3]; read-out: CDK7 (20 nM enz.) (kinact/ KI, M^−1*s^−1), 20 nM enz.): 1280 M⁻¹ s⁻¹; CDK7_ A549 mutant hCDK7(pIC50) [2]: <5
C=CC(=O)N1CC[C@@H](N2CC(c3cc(C)c4c(c3)Nc3ncnc(N5CCS(=O)(=O)CC5)c3[C@@H](C)O4)C2)C1 (single isomer, unassigned) [compound 119] | – | > 10 | CDK7 (20 nM enz.) (kinact, s^−1) [3]: 6.1e-05 s⁻¹ and 4.27e-05 s⁻¹; CDK7 (20 nM enz.) (kinact/ KI, M^−1*s^−1) [3]: 1923.49 M⁻¹ s⁻¹ and 1433.61 M⁻¹ s⁻¹ and 1881.64 M⁻¹ s⁻¹; Ki [3]: 0.0249 µM and 0.0426 µM and 0.0227 µM; kinact [3]: 4.79e-05 s⁻¹; CDK7_ A549 mutant hCDK7(pIC50) [2]: 4.95
CC#CC(=O)N1CC[C@H](N2CC(c3cc(C)c4c(c3)Nc3ncnc(N5CCS(=O)(=O)CC5)c3[C@@H](C)O4)C2)C1 [compound 128] | – | > 10 | CDK7_ A549 mutant hCDK7(pIC50) [2]: <5
CC#CC(=O)N1CC(N2CCC(c3cc4c(c(C)n3)O[C@H](C)c3c(ncnc3N3CCS(=O)(=O)CC3)N4)CC2)C1 (single isomer, unassigned) [compound 139] | – | > 10 | CDK7 (20 nM enz.) (kinact, s^−1) [3]: 6.2e-05 s⁻¹; Ki [3]: 0.135 µM and 0.0466 µM; kinact [3]: 5.63e-05 s⁻¹
